In the first experiment the test system is rats.
Assay: not given
Conditions: intracerebroventricular; cited from earlier work.
With t-butyl carbamate-prolyl prolinal [BPP], the overnight food intake result is “suppression of overnight food intake”.

Another experiment relates to obese, leptin deficient mice.
Assay: not given
As to conditions: systemic administration; cited from earlier work.
Regarding t-butyl carbamate-prolyl prolinal [BPP], the overnight food intake entry was “suppression of overnight food intake”.

A further experiment addresses T1, human PrCP (Homo sapiens, UniProt P42785).
T1 construct: made in house
T1 sequence (P42785 46-496): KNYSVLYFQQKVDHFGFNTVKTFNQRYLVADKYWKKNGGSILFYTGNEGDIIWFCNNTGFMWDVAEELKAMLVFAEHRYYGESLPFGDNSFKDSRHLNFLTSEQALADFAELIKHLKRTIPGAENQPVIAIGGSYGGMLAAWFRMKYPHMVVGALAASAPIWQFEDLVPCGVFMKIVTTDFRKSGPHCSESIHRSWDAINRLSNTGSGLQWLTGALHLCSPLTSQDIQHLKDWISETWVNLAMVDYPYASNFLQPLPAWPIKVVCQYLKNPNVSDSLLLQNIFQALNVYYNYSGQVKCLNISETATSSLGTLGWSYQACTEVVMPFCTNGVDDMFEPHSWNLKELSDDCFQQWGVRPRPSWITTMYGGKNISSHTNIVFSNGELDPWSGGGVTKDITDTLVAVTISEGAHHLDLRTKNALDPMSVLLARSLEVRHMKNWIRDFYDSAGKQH
Put plainly: Prolylcarboxypeptidase (PRCP) enzyme activity assay, fluorescence intensity kinetic assay, human enzyme. It is filed as biochemical. Conditions: recombinant human PrCP, 15 uM substrate, pH 5.5, 37° C. Here is the method: The potency of compounds of formula I against PrCP was determined by a fluorescence intensity kinetic assay measuring the IC50 values of PrCP inhibitor test compounds. […] The assay was run on a Perkin Elmer Envision 2103 plate reader using a 320 nm excitation filter and a 405 emission filter. The assay was performed using a Hamilton Star liquid handling workstation. The assay employed the internally quenched fluorescent substrate (1S)-1-carboxy-5-[(2,4-dinitrophenyl)amino]pentyl N-[(7-methoxy-2-oxo-2H-chromen-4-yl)acetyl]-L-alanyl-L-prolinate prepared in house.
The assay was run in a 384-well microtiter plate at 37° C. with a total volume of 50 uL. Final assay concentrations were 0.13 nM human PrCP (CHO) or 0.09 nM mouse PrCP (CHO) enzyme, 15 uM substrate and varying concentrations of inhibitor in buffer containing 10 mM NaOAc, 100 mM NaCl and 19.5 ug/mL BSA at pH 5.5. The assay also contained 2% DMSO used to solubilize the substrate and inhibitor. Inhibitors were prepared in 100% DMSO and serial diluted (in 100% DMSO) to generate 11 point titration curves. Either 39 uL of human or mouse PrCP enzyme was added to the wells of the assay plate, followed by a 1 uL addition of the serially diluted inhibitor and mixed three times using a 30 uL mix volume. The reaction was initiated by the addition of 10 uL substrate and mixed three times using a 30 uL mix volume. The reactions were monitored continuously over 25 min at 37° C. to obtain initial velocities. […] values were calculated by comparing the resulting rates of reaction of the inhibited and control initial velocities.
The enzymes were diluted in a mixture of 10 mM NaOAc (pH 5.5)/100 mM NaCl buffer containing 25 ug/mL bovine serum albumin that had been warmed to 37° C. in a water bath. The PrCP inhibitor test compounds were plated in 100% DMSO with a highest concentration of 500 uM. There were 12 dilution points for each compound tested including a blank with DMSO only. The test compounds from the source titration plate were transferred into the assay reaction plate at a 1:50 dilution using the Hamilton Star workstation and mixed, resulting in a final concentration for the test compounds in the range of 10,000 to 0.066 nM. Likewise, two control compounds were similarly titrated and included in each assay, with final starting concentrations starting at 10,000 nM and 200 nM, respectively. The reaction was initiated by the addition of 75 uM of the (1S)-1-carboxy-5-[(2,4-dinitrophenyl)amino]pentyl N-[(7-methoxy-2-oxo-2H-chromen-4-yl)acetyl]-L-alanyl-L-prolinate substrate, which was diluted in a mixture of 10 mM NaOAc (pH 5.5)/100 mM NaCl that had been warmed to 37° C. in a water bath, dispensed using the Hamilton Star workstation and mixed. The substrate was solubilized in 100% DMSO prior to dilution into the assay. The final assay concentrations in the 50 uL reactions were 15 uM of (1S)-1-carboxy-5-[(2,4-dinitrophenyl)amino]pentyl N-[(7-methoxy-2-oxo-2H-chromen-4-yl)acetyl]-L-alanyl-L-prolinate substrate, 0.13 nM Human PrCP (CHO) or 0.09 nM Mouse PrCP (CHO), and 2% DMSO.
Broadly, the IC50 is the concentration needed to halve the response being measured. Regarding `Fc1ccc(-c2cc([C@H]3CC[C@H](c4ccccc4)NC3)n(-c3ncccn3)n2)cc1` (mixture of isomers) [Example 4], the IC50 is 4.1 nM. With `COC(=O)N1C[C@@H](c2cc(-c3ccc(Cl)cc3)nn2-c2ncccn2)CC[C@@H]1c1ccccc1` (mixture of isomers) [Example 13], the IC50 was 1.3 nM. Same read-out and setting: as for `CNC(=O)N1C[C@@H](c2cc(-c3ccc(F)cc3)nn2-c2ncccn2)CC[C@@H]1c1ccccc1` (mixture of isomers) [Example 95], the figure is 10 nM; as for `CC(C)(C)OC(=O)N1C[C@H](c2cc(-c3ccc(F)cc3)nn2-c2ncccn2)CC[C@@H]1CCc1ccccc1` (racemic) [Example 5, tert-Butyl 5-[3-(4-fluorophenyl)-1-(pyrimidin-2-yl)-1H-pyrazol-5-yl]-2-(2-phenylethyl)piperidine-1-carboxylate], 8 nM; as for `Fc1ccc(-c2cc([C@@H]3CC[C@H](CCc4ccccc4)NC3)n(-c3ncccn3)n2)cc1` (racemic) [Example 6, 2-{3-(4-Fluorophenyl)-5-[6-(2-phenylethyl)piperidin-3-yl]-1H-pyrazol-1-yl}pyrimidine], 2.1 nM. On the same count and under the same terms, as for `Clc1ccc(-c2cc(C3CNC(CCc4ccccc4)CO3)n(-c3ncccn3)n2)cc1` (single isomer, unassigned) [Example 8, 2-[3-(4-Chlorophenyl)-1-(pyrimidin-2-yl)-1H-pyrazol-5-yl]-5-(2-phenylethyl)morpholine], the figure is 12 nM; as for `O=C(Cc1cccc2ccccc12)N1CCCC(c2cc(-c3ccc(F)cc3)nn2-c2ncccn2)C1` (stereo not shown) [Example 17], 1.2 nM; as for `O=C(Cc1ccccc1C(F)(F)F)N1CCCC(c2cc(-c3ccc(F)cc3)nn2-c2ncccn2)C1` (stereo not shown) [Example 20], 0.65 nM. For `O=C(CC1CCCCC1)N1CCCC(c2cc(-c3ccc(F)cc3)nn2-c2ncccn2)C1` (stereo not shown) [Example 36], the half-maximal inhibitory concentration (IC50) is 30 nM. On the same count and under the same terms, as for `O=C(NCCc1ccc(F)cc1)N1CCCC(c2cc(-c3ccc(F)cc3)nn2-c2ncccn2)C1` (stereo not shown) [Example 82], the figure is 27 nM; as for `O=S(=O)(CCC(F)(F)F)N1CCCC(c2cc(-c3ccc(F)cc3)nn2-c2ncccn2)C1` (stereo not shown) [Example 109], 4.5 nM.

The values above are taken from patent US20130059830A1, “NOVEL PROLYLCARBOXYPEPTIDASE INHIBITORS” (priority 2010, published 2013).
